# Assay results taken from US20050032858A1, “Novel heterocyclic compound and anti-inflamatory agent” (priority 2001, published 2005).
# Like-named read-outs stand apart in the source and are kept apart here.
# Experiments:
# [1] = system: acetic acid induced writhes; assay: Acetic acid writhing; format: in vivo, ICR-strain male mouse; conditions: i.p., 30 minutes before, vehicle control 25.2 ± 2.2
# Experimental: This test was carried out referring to the methods of Inoue, K., Motonaga, A. and Nishimura, T. [Arzneimittel Forshung/Drug Research 41 (1): 235-239 (1991)] and of Murata, T., et al. [Nature 388: 678-682 (1997)]: 7.5 mL/kg of a 0.9% aqueous solution of acetic acid was injected intraperitoneally into an ICR-strain male mouse (6 to 8 weeks old). The number of induced writhes (characteristic behavior of contracting the abdomen, twisting the body and/or extending the hind legs in agony) was counted in a period between 10 minutes and 20 minutes after the injection. A compound of the present invention was homogeneously suspended in 2% Tween 80/saline for injection use and injected intraperitoneally 30 minutes before the induction of stimulation by the acetic acid injection. Alternatively the compound was homogeneously suspended in 2% Tween 80/distilled water and orally administered an hour before the stimulation induction by the acetic acid injection. The analgesic activity of the compound of the present invention was evaluated on the basis of how many writhes were suppressed by the administration. Indomethacin or aspirin was administered as the positive control.
# [2] = system: mouse ear edema induced by TPA; format: in vivo, ICR-strain male mouse; conditions: topical, measured 6 hours after TPA
# Experimental: This test was carried out referring to the methods of Carlson, R. P., et al. [Agents and Actions 17 (2): 197-204 (1985)] and of Chang, J., et al. [European Journal of Pharmacology 142: 197-205 (1987)]: 5 μg/20 μL of TPA (Sigma Chemical Co., Ltd.) dissolved in ethanol was applied on the anterior and posterior surfaces of the right ear of an ICR-strain male mouse (6 to 7 weeks old). The thickness of a specific area of each of the ears was measured 3 times by a digimatic micrometer 6 hours after the application. The mean values were calculated. Ear edema was determined by subtracting the mean thickness of the non-treated left ear from that of the TPA-applied right ear. A topical application activity was evaluated in a way that an acetone solution or a 0.1% Tween 80/acetone solution of a compound of the present invention was applied on the anterior and posterior surfaces of the right ear 30 minutes before and 15 minutes after the application of TPA. […] An oral administration activity was evaluated by forced oral administration of a suspension of a compound of the present invention in 2% Tween 80/distilled water an hour before applying TPA. […]
structure (smiles),measurement,setting,value
"CC(=O)Oc1ccccc1C(=O)O [Aspirin, aspirin]",No. of writhes (mean ± S.E.),[1]; 30 mg/kg,9.5 ± 2.0
"COc1ccc2c(c1)c(CC(=O)O)c(C)n2C(=O)c1ccc(Cl)cc1 [Indomethacin, indomethacin]",Ear edema inhibition (%),[2]; 3 mg/40 μL/ear × 2,63.5%
same,No. of writhes (mean ± S.E.),[1]; 3 mg/kg,13.8 ± 3.0
same,No. of writhes (mean ± S.E.),[1]; 10 mg/kg,4.8 ± 0.9
"CC(=O)OCC(=O)[C@@]1(O)[C@H](C)C[C@H]2[C@@H]3CCC4=CC(=O)C=C[C@]4(C)[C@@]3(F)[C@@H](O)C[C@@]21C [DEX-Ac, dexamediasone-21-acetate]",Ear edema inhibition (%),[2]; 1 mg/20 μL/ear × 2,79.6%
